The values that follow come from patent publication US20150148311A1, “NON-SYSTEMIC TGR5 AGONISTS” (Ardelyx, Inc., priority 2011, published 2015).

Experiment [1] addresses T1, endogenously expressed TGR5 in NCI H716 (Homo sapiens, UniProt Q8TDU6).
T1 construct: human caecum carcinoma cell line NCI-H716 which endogenously expresses human TGR5; endogenous in cells; host or cells: NCI-H716
T1 sequence (Q8TDU6 1-330): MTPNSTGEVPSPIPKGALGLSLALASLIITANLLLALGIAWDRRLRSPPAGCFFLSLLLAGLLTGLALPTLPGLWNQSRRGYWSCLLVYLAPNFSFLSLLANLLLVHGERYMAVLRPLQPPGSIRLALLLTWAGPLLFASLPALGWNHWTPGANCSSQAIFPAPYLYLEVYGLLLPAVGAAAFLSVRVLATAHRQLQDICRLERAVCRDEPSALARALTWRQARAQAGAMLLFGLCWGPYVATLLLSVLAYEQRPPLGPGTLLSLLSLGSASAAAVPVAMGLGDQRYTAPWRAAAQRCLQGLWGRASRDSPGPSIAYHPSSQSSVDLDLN
Put plainly: Cell-based TGR5 assay, NCI-H716 cells endogenously expressing human TGR5, cAMP by HTRF. To be noted: 30 min at 37 C, 22 nM to 50 μM, read-out: pEC50 endogenously expressed TGR5 in NCI H716 (converted). The method, boiled down: (§1)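 cAMP HTRF read-out, converted to concentration via standard curve, after a 30 min, 37 °C compound exposure in HBSS with 10 mM HEPES pH 7.4 and 0.5 mM IBMX, compounds serially diluted 3-fold from 10 mM DMSO stock then 100-fold. Cells: stable human TGR5 HEK293, or NCI-H716 expressing TGR5 endogenously.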
(In TR-FRET formats the signal depends on donor and acceptor labels being close together.)

For experiment [2], the target named is T2, human IBAT (Homo sapiens, UniProt Q12908).
T2 construct: expressed in transfected cells; host or cells: HEK293
T2 sequence (Q12908 1-348): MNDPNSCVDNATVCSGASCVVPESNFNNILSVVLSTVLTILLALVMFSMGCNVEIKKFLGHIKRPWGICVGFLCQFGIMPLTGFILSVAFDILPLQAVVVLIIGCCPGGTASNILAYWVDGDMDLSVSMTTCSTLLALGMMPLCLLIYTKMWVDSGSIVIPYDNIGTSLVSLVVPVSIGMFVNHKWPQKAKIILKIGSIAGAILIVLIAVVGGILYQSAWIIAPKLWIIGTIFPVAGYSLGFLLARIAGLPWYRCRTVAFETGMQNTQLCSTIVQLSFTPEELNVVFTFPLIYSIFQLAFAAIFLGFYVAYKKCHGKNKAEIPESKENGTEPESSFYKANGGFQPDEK
The experiment can be described thus: IBAT counter screen, [3H]taurocholic acid uptake in IBAT-transfected HEK293 cells. It is filed as cell-based. To be noted: read-out: pEC50 human IBAT (converted). The protocol: Following a 40-min incubation, the solution was removed, and the cells were washed twice with uptake buffer. Cells were lysed by addition of 20 μL 0.1% Tween 80 followed by 100 μL scintillation fluid and counted using a TopCount (Perkin Elmer).

Experiment [3] deals with T3, human TGR5 (Homo sapiens, UniProt Q8TDU6).
T3 construct: expressed in transfected cells
T3 sequence (Q8TDU6 1-330): T1 sequence (Q8TDU6 1-330)
Put plainly: Cell-based TGR5 assay, HEK293 cells stably expressing human TGR5, cAMP by HTRF. To be noted: HEK293 cells stably expressing human TGR5, 30 min at 37 C, 0.05 nM to 10 μM, read-out: pEC50 Human TGR5 (converted). The method, boiled down:
as §1

Take `O=C([C@@H]1CCCCN1C(=O)c1cc(Cl)ccc1Cl)N1CCN(C2CC2)c2ccccc21` [Example 13, (S)-(2-(4-cyclopropyl-1,2,3,4-tetrahydroquinoxaline-1-carbonyl)piperidin-1-yl)(2,5-dichlorophenyl)methanone]: the EC50 was 1260 to 50100 nM in experiment [1], above 25.1 µM in experiment [2] and 1260 to 50100 nM in experiment [3].

Regarding `O=C(C1=C(Oc2cc(Cl)ccc2Cl)CCCC1)N1CCN(C2CC2)c2ccccc21` [Example 29, (4-cyclopropyl-3,4-dihydroquinoxalin-1(2H)-yl)(2-(2,5-dichlorophenoxy)cyclohex-1-enyl)methanone], the EC50 in experiment [1] is 126 to 1000 nM; in experiment [2], above 25.1 µM; in experiment [3] it was below 100 nM.

`Cc1nn(C)c(Oc2cc(Cl)ccc2Cl)c1C(=O)N1CCN(C2CC2)c2ccccc21` [Example 65, 1-cyclopropyl-4-[[5-(2,5-dichlorophenoxy)-1,3-dimethyl-1H-pyrazol-4-yl]carbonyl]-1,2,3,4-tetrahydroquinoxaline]: the EC50 in experiment [1] was 1260 to 50100 nM; in experiment [2], above 25.1 µM; in experiment [3] it was 1260 to 50100 nM.

Regarding `O=C(N1CCN(C2CC2)c2ccccc21)C1(OCc2cc(Cl)ccc2Cl)CCCC1` [Example 8, (4-cyclopropyl-3,4-dihydroquinoxalin-1(2H)-yl)(1-(2,5 dichlorobenzyloxy)cyclopentyl)methanone], the EC50 in experiment [1] is 126 to 1000 nM; in experiment [2], above 25.1 µM; in experiment [3], below 100 nM.

For the compound `O=C(N1CCN(C2CC2)c2ccccc21)C1(NCc2cc(Cl)ccc2Cl)CCC1` [Example 56], the EC50 was below 100 nM in experiment [1], above 25.1 µM in experiment [2] and below 100 nM in experiment [3].

Regarding `O=C([C@@H]1C2CC2CN1Cc1cc(Cl)ccc1Cl)N1CCN(C2CC2)c2ccccc21` (stereo partly drawn) [Example 24, (4-cyclopropyl-3,4-dihydroquinoxaline-1(2H)-yl)((2S)-3-(2,5-dichlorobenzyl)-3-azabicyclo[3.1.0]hexan-2-yl)methanone], the EC50 in experiment [1] was 1260 to 50100 nM; in experiment [2] it was above 25.1 µM; in experiment [3], 1260 to 50100 nM.

Regarding `O=C(c1nccn1Cc1cc(Cl)ccc1Cl)N1CCN(C2CC2)c2ccccc21` [Example 62, (4-cyclopropyl-3,4-dihydroquinoxalin-1(2H)-yl)(1-(2,5-dichlorobenzyl)-1H-imidazol-2-yl)methanone], the EC50 in experiment [1] was 1260 to 50100 nM; in experiment [2] it was above 25.1 µM; in experiment [3], 1260 to 50100 nM.

On to `O=C(N1CCN(C2CC2)c2ccccc21)N1CCCC1Cc1ccccc1Cl` (stereo not shown) [Example 28], for which the EC50 in experiment [1] was 1260 to 50100 nM; in experiment [2], above 25.1 µM; in experiment [3], 1260 to 50100 nM.

Take `O=C([C@@H]1CCCCN1Cc1cc(Cl)ccc1Cl)N1CCN(C2CC2)c2ccccc21` [Example 14, (S)-(4-cyclopropyl-3,4-dihydroquinoxaline-1(2H)-yl)(1-(2,5-dichlorobenzyl)piperidin-2-yl) methanone]: the EC50 in experiment [2] is above 25.1 µM.

Regarding `O=C([C@@H]1C[C@H](O)CN1Cc1cc(Cl)ccc1Cl)N1CCN(C2CC2)c2ccccc21` [Example 6, (4-cyclopropyl-3,4-dihydroquinoxalin-1(2H)-yl)((2S,4S)-1-(2,5-dichlorobenzyl)-4-hydroxypyrrolidin-2-yl)methanone], the EC50 in experiment [2] is above 25.1 µM.

`O=C([C@@H]1COCCN1Cc1cc(Cl)ccc1Cl)N1CCN(C2CC2)c2ccccc21` [Example 23, (S)-(4-cyclopropyl-3,4-dihydroquinoxaline-1(2H)-yl)(4-(2,5-dichlorobenzyl)morpholin-3-yl)methanone]: the EC50 in experiment [2] was above 25.1 µM.

In the case of `O=C([C@H]1CCCN1Cc1cc(Cl)ccc1Cl)N1CCN(C2CC2)c2ccccc21` [Example 15, (R)-(4-cyclopropyl-3,4-dihydroquinoxalin-1(2H)-yl)(1-(2,5-dichlorobenzyl)pyrrolidin-2-yl)methanone], the EC50 in experiment [2] is above 25.1 µM.
